Assay results from PubChem BioAssay AID248 (DTP/NCI, 2004).
“And” between values parts separate entries of the source, which are not always exact repeats. Equal values may be shown once. Inconclusive results and toxic doses are left out. Rule as the data show it: active = T/C of 150% or more; inactive = T/C below 125%.

Tested on: L1210 leukemia ip in BDF1 mice, survival T/C
Assay: NCI In Vivo Anticancer Drug Screen. Data for tumor model L1210 Leukemia (intraperitoneal) in B6D2F1 (BDF1) mice
Details: endpoint: mean survival time, higher = longer survival
Procedure, shortened: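 Transplantable tumor model; survival measured in treated vs vehicle control mice. Value = treated/control.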

[1] = dose: 12.5 mg/kg/injection, schedule: Q04DX003 (ip), vehicle: Klucel (hydroxypropylcellulose) (HPC)
[2] = dose: 25.0 mg/kg/injection, schedule: Q04DX003 (ip), vehicle: Klucel (hydroxypropylcellulose) (HPC)
[3] = dose: 50.0 mg/kg/injection, schedule: Q01DX009 (ip), vehicle: Klucel (hydroxypropylcellulose) (HPC)
[4] = dose: 100.0 mg/kg/injection, schedule: Q01DX009 (ip), vehicle: Klucel (hydroxypropylcellulose) (HPC)
[5] = dose: 100.0 mg/kg/injection, schedule: Q04DX002 (ip), vehicle: Klucel (hydroxypropylcellulose) (HPC)
[6] = dose: 200.0 mg/kg/injection, schedule: Q01DX009 (ip), vehicle: Klucel (hydroxypropylcellulose) (HPC)
[7] = dose: 200.0 mg/kg/injection, schedule: Q04DX002 (ip), vehicle: Klucel (hydroxypropylcellulose) (HPC)
[8] = dose: 100.0 mg/kg/injection, schedule: Q04DX003 (ip), vehicle: Klucel (hydroxypropylcellulose) (HPC)
[9] = dose: 200.0 mg/kg/injection, schedule: Q04DX003 (ip), vehicle: Klucel (hydroxypropylcellulose) (HPC)
[10] = dose: 400.0 mg/kg/injection, schedule: Q01DX009 (ip), vehicle: Klucel (hydroxypropylcellulose) (HPC)
[11] = dose: 100.0 mg/kg/injection, schedule: Q01DX009 (ip), vehicle: saline with Tween-80
[12] = dose: 200.0 mg/kg/injection, schedule: Q01DX009 (ip), vehicle: saline with Tween-80
[13] = dose: 400.0 mg/kg/injection, schedule: Q01DX009 (ip), vehicle: saline with Tween-80
[14] = dose: 100.0 mg/kg/injection, schedule: Q04DX003 (ip), vehicle: saline with Tween-80
[15] = dose: 200.0 mg/kg/injection, schedule: Q04DX003 (ip), vehicle: saline with Tween-80
[16] = dose: 400.0 mg/kg/injection, schedule: Q04DX003 (ip), vehicle: saline with Tween-80

Measured: T/C

C[As](C)Sc1ncccn1
inactive: dose: 6.25 mg/kg/injection, schedule: Q01DX009 (ip), vehicle: Klucel (hydroxypropylcellulose) (HPC) 100 % of control | dose: 12.5 mg/kg/injection, schedule: Q01DX009 (ip), vehicle: Klucel (hydroxypropylcellulose) (HPC) 103 % of control | [1] 98 % of control | [2] 95 % of control

COc1ccc(/C=C/c2c3cc(OC)c(OC)cc3cc3c4cc(OC)c(OC)cc4cc[n+]23)cc1OC
inactive: dose: 100.0 mg/kg/injection, schedule: Q01DX001 (ip), vehicle: carboxymethylcellulose (CMC) 93 % of control and 108 % of control | dose: 100.0 mg/kg/injection, schedule: Q04DX002 (ip), vehicle: carboxymethylcellulose (CMC) 96 % of control and 89 % of control | dose: 100.0 mg/kg/injection, schedule: Q04DX003 (ip), vehicle: carboxymethylcellulose (CMC) 97 % of control | dose: 200.0 mg/kg/injection, schedule: Q01DX001 (ip), vehicle: carboxymethylcellulose (CMC) 97 % of control and 100 % of control | dose: 200.0 mg/kg/injection, schedule: Q04DX002 (ip), vehicle: carboxymethylcellulose (CMC) 100 % of control and 87 % of control | dose: 200.0 mg/kg/injection, schedule: Q04DX003 (ip), vehicle: carboxymethylcellulose (CMC) 92 % of control | dose: 400.0 mg/kg/injection, schedule: Q01DX001 (ip), vehicle: carboxymethylcellulose (CMC) 102 % of control and 90 % of control | dose: 400.0 mg/kg/injection, schedule: Q04DX002 (ip), vehicle: carboxymethylcellulose (CMC) 86 % of control and 92 % of control | dose: 400.0 mg/kg/injection, schedule: Q04DX003 (ip), vehicle: carboxymethylcellulose (CMC) 101 % of control

O=C(Nc1ccc([N+](=O)[O-])cc1Cl)c1cc(Cl)ccc1O
inactive: [3] 101 % of control | [4] 104 % of control | [5] 91 % of control | [6] 101 % of control | [7] 94 % of control

ClC1=C(Cl)C(Cl)=C(Cl)C1=Cc1ccccc1
inactive: dose: 3.13 mg/kg/injection, schedule: Q01DX009 (ip), vehicle: saline with Tween-80 113 % of control | dose: 6.25 mg/kg/injection, schedule: Q01DX009 (ip), vehicle: saline with Tween-80 107 % of control | dose: 25.0 mg/kg/injection, schedule: Q04DX002 (ip), vehicle: Klucel (hydroxypropylcellulose) (HPC) 100 % of control | dose: 50.0 mg/kg/injection, schedule: Q04DX002 (ip), vehicle: Klucel (hydroxypropylcellulose) (HPC) 90 % of control

c1cncc(C2SCCCS2)c1
inactive: dose: 100.0 mg/kg/injection, schedule: Q04DX002 (ip), vehicle: DMSO 87 % of control | dose: 200.0 mg/kg/injection, schedule: Q04DX002 (ip), vehicle: DMSO 87 % of control

O=C1OCC/C1=C/OCCO/C=C1\CCOC1=O
inactive: [5] 94 % of control | [7] 90 % of control

O=C(O)c1c(Cl)c(Cl)c(Cl)c(C(=O)O)c1Cl
inactive: [3] 98 % of control | [4] 97 % of control | [8] 93 % of control | [6] 98 % of control | [9] 91 % of control

O=S1(=O)CC(Cl)C(Cl)C1 (configuration not stated)
inactive: dose: 1.56 mg/kg/injection, schedule: Q01DX009 (ip), vehicle: saline 90 % of control | dose: 3.12 mg/kg/injection, schedule: Q01DX009 (ip), vehicle: saline 91 % of control | dose: 6.25 mg/kg/injection, schedule: Q01DX009 (ip), vehicle: saline 91 % of control | dose: 12.5 mg/kg/injection, schedule: Q01DX001 (ip), vehicle: other 94 % of control | dose: 12.5 mg/kg/injection, schedule: Q01DX001 (ip), vehicle: saline with Tween-80 98 % of control | dose: 12.5 mg/kg/injection, schedule: Q01DX009 (ip), vehicle: other 90 % of control | dose: 12.5 mg/kg/injection, schedule: Q01DX009 (ip), vehicle: saline 98 % of control | [1] 106 % of control | dose: 25.0 mg/kg/injection, schedule: Q01DX001 (ip), vehicle: other 95 % of control | dose: 25.0 mg/kg/injection, schedule: Q01DX001 (ip), vehicle: saline with Tween-80 100 % of control | [2] 108 % of control | dose: 25.0 mg/kg/injection, schedule: Q04DX003 (ip), vehicle: saline with Tween-80 101 % of control | dose: 50.0 mg/kg/injection, schedule: Q01DX001 (ip), vehicle: other 95 % of control | dose: 50.0 mg/kg/injection, schedule: Q04DX003 (ip), vehicle: Klucel (hydroxypropylcellulose) (HPC) 92 % of control | dose: 50.0 mg/kg/injection, schedule: Q04DX003 (ip), vehicle: saline with Tween-80 90 % of control

Nc1n[nH]c(C(=O)O)n1
inactive: [4] 98 % of control | [8] 107 % of control | [6] 107 % of control | [9] 93 % of control | [10] 105 % of control | dose: 400.0 mg/kg/injection, schedule: Q04DX003 (ip), vehicle: Klucel (hydroxypropylcellulose) (HPC) 93 % of control

COC1OC2COc3ccccc3OC2C(NC#N)C1O (configuration not stated)
inactive: [11] 97 % of control | [12] 96 % of control | [13] 89 % of control

COc1ccc(OC)c(NC(=O)c2ccc(Cl)cc2)c1
inactive: dose: 100.0 mg/kg/injection, schedule: Q01DX001 (ip), vehicle: saline with Tween-80 101 % of control | [11] 97 % of control | dose: 100.0 mg/kg/injection, schedule: Q04DX002 (ip), vehicle: saline with Tween-80 104 % of control and 110 % of control | [14] 94 % of control | dose: 200.0 mg/kg/injection, schedule: Q01DX001 (ip), vehicle: saline with Tween-80 97 % of control | [12] 95 % of control and 97 % of control | dose: 200.0 mg/kg/injection, schedule: Q04DX002 (ip), vehicle: saline with Tween-80 104 % of control and 92 % of control | [15] 97 % of control | dose: 400.0 mg/kg/injection, schedule: Q01DX001 (ip), vehicle: saline with Tween-80 95 % of control | [13] 102 % of control and 124 % of control | dose: 400.0 mg/kg/injection, schedule: Q04DX002 (ip), vehicle: saline with Tween-80 94 % of control and 108 % of control | [16] 95 % of control

Cc1ccc(N=Nc2ccc(C)cc2NC(=O)C2CC2)cc1
inactive: [4] 97 % of control | [6] 97 % of control | [10] 97 % of control

O=C(O)c1ccccc1C(c1ccccc1)c1ccccc1
inactive: [14] 98 % of control | [15] 93 % of control | [16] 98 % of control

COC[CH2][Hg][O]C(C)=O
inactive: dose: 3.12 mg/kg/injection, schedule: Q04DX002 (ip), vehicle: Klucel (hydroxypropylcellulose) (HPC) 98 % of control | dose: 6.25 mg/kg/injection, schedule: Q04DX002 (ip), vehicle: Klucel (hydroxypropylcellulose) (HPC) 92 % of control | dose: 12.5 mg/kg/injection, schedule: Q04DX002 (ip), vehicle: Klucel (hydroxypropylcellulose) (HPC) 88 % of control and 90 % of control

O=C(O)c1ccc(Nc2ccccc2)cc1
inactive: [14] 103 % of control | [15] 90 % of control | [16] 90 % of control

c1ccc2c(c1)CCN(CCCCN1CCc3ccccc3C1)C2
inactive: dose: 25.0 mg/kg/injection, schedule: Q04DX003 (ip), vehicle: saline 100 % of control | dose: 50.0 mg/kg/injection, schedule: Q04DX003 (ip), vehicle: saline 102 % of control | dose: 100.0 mg/kg/injection, schedule: Q04DX003 (ip), vehicle: saline 96 % of control and 97 % of control
